# Source: patent US12103916B2, “Antifungal compounds” (University of Kentucky Research Foundation, priority 2016, dated 2024)
# Read-outs that look alike come from different tables or passages of the source.
# Assays:
# [1] = system: Candida albicans ATCC 10231; assay: MIC determination, strain A; format: cell-based; details: for MIC: Candida albicans, ATCC10231
# Source text: (§1) For all of our azole derivatives we report their MIC-0 values against C. albicans ATCC 10231 (strain A) and all Aspergillus strains (K-M), which correspond to complete growth inhibition of these fungi. […] The MIC values presented for these five control drugs were either tested herein or correspond to our previously published data^5, 16 as indicated in Table 1.
# (§2) Antifungal activity in the absence or presence of serum.
# (§3) It is important to note that all comparisons to follow will be done by using the MIC values reported in μg/mL as the data were collected that way. However, we also present in parentheses in Table 2 the corresponding values in micromolar.
# (§4) In this manuscript, we performed all activity comparisons by using the MIC values reported in μg/mL (Note: the corresponding MIC values are also provided in μM into parentheses in Tables 1, 2, S1, and S2).
# C. albicans ATCC 64124 = assay: MIC determination, strain B; format: cell-based, Candida albicans; details: strain B, AmB; for MIC: Candida albicans, ATCC64124
# Protocol: (§5) The antifungal activity of our new azole compounds 1-9 and 24-41 was first evaluated against a panel of seven Candida albicans strains (A-G), three non-albicans Candida strains […], and three Aspergillus strains (K-M) in a concentration range of 0.03-31.2 μg/mL (Table 1). […] For all of our azole derivatives we report their MIC-0 values against C. albicans ATCC 10231 (strain A) and all Aspergillus strains (K-M), which correspond to complete growth inhibition of these fungi. […] The commercially available antifungals AmB, FLC, ITC, POS, and VOR were used as reference drugs for comparison. The MIC values presented for these five control drugs were either tested herein or correspond to our previously published data^5, 16 as indicated in Table 1.
# (§6) Antifungal activity in the absence or presence of serum. The antifungal activity of the newly prepared alkylated piperazine/morpholine-azole hybrids 16-28, of intermediate 14 that we used to verify that only final compounds exert antifungal activity, as well as that of alkylated piperazine/morpholine derivatives 1-10 were first evaluated against a panel of seven C. albicans (ATCC 10231 (A), ATCC 64124(R) (B), ATCC MYA-2876(S) (C), ATCC 90819(R) (D), ATCC MYA-2310(S) (E), ATCC MYA-1237(R) (F), and ATCC MYA-1003(R) (G)), three non-albicans Candida (C. glabrata ATCC 2001 (H), C. krusei ATCC 6258 (I), and C. parapsilosis ATCC 22019 (J)), and three Aspergillus (A. flavus ATCC MYA-3631 (K), A. nidulans ATCC 38163 (L), and A. terreus ATCC MYA-3633 (M)) strains using a concentration range of 0.03-31.3 μg/mL (Table 2).
# as §3, with “Commercially available antifungal agents such as AmB, CAS, FLC, and VOR were used as positive controls for comparison. […] It” for “It”
# (§7) We used the commercially available antifungal agents such as AmB, caspofungin (CAS), FLC, and VOR as positive controls for comparison. For derivatives 5-16 as well as the reference drugs AmB and CAS, we reported MIC-0 values, which correspond to no visible growth. […] In this manuscript, we performed all activity comparisons by using the MIC values reported in μg/mL (Note: the corresponding MIC values are also provided in μM into parentheses in Tables 1, 2, S1, and S2).
# [2] = system: C. albicans ATCC MYA-2876(S); assay: MIC determination, strain C; format: cell-based, Candida albicans; details: strain C, AmB; for MIC: Candida albicans
# Protocol: as §5, §6
# as §3, with “Commercially available antifungal agents such as AmB, CAS, FLC, and VOR were used as positive controls for comparison. […] It” for “It”
# as §7
# [3] = system: C. albicans ATCC 90819(R); assay: MIC determination, strain D; format: cell-based, Candida albicans; details: strain D, AmB; for MIC: Candida albicans, ATCC90819
# Protocol: as §5, §6
# as §3, with “Commercially available antifungal agents such as AmB, CAS, FLC, and VOR were used as positive controls for comparison. […] It” for “It”
# as §7
# [4] = system: C. albicans ATCC MYA-2310(S); assay: MIC determination, strain E; format: cell-based, Candida albicans; details: strain E, AmB; for MIC: Candida albicans
# Protocol: as §5, §6
# as §3, with “Commercially available antifungal agents such as AmB, CAS, FLC, and VOR were used as positive controls for comparison. […] It” for “It”
# as §7
# [5] = system: C. albicans ATCC MYA-1237(R); assay: MIC determination, strain F; format: cell-based, Candida albicans; details: strain F, AmB; for MIC: Candida albicans
# Source text: as §1, §2, §3, §4
# [6] = system: C. albicans ATCC MYA-1003(R); assay: MIC determination, strain G; format: cell-based, Candida albicans; details: strain G, AmB; for MIC: Candida albicans
# Source text: as §1, §2, §3, §4
# [7] = system: Candida glabrata ATCC 2001; assay: MIC determination, strain H; format: cell-based; details: strain H, AmB; for MIC: Nakaseomyces glabratus, ATCC2001
# Protocol: as §5, §6
# as §3, with “Commercially available antifungal agents such as AmB, CAS, FLC, and VOR were used as positive controls for comparison. […] It” for “It”
# as §7
# Candida krusei ATCC 6258 = assay: MIC determination, strain I; format: cell-based; details: strain I, AmB; for MIC: Pichia kudriavzevii, ATCC6258
# Protocol: as §5, §6
# as §3, with “Commercially available antifungal agents such as AmB, CAS, FLC, and VOR were used as positive controls for comparison. […] It” for “It”
# as §7
# [8] = system: Aspergillus terreus ATCC MYA-3633; assay: MIC determination, strain M; format: cell-based; details: for MIC: Aspergillus terreus
# Source text: as §1, §2, §3, §4
# BEAS-2B cell line = assay: Cytotoxicity assay, BEAS-2B; details: Ex.1 series, 15.6 μg/mL
# Protocol: The positive control consisted of cells treated with Triton X-100® (TX, 12.5% v/v). The negative control consisted of cells treated with DMSO (no drug).
# The positive control consisted of cells treated with Triton X-100® (TX, 20% v/v, pink). The negative control consisted of cells treated with DMSO (no drug, green). The experiments were performed in duplicate.
# In vitro cytotoxicity assay.
# [9] = system: Candida parapsilosis ATCC 22019; assay: MIC determination, strain J; format: cell-based; details: Lodderomyces parapsilosis, ATCC22019, Table 2, strain J, Ex.2 compounds, AmB, CAS
# Protocol: as §5, §6
# as §3, with “Commercially available antifungal agents such as AmB, CAS, FLC, and VOR were used as positive controls for comparison. […] It” for “It”
# as §7
# [10] = system: Aspergillus flavus ATCC MYA-3631; assay: MIC determination, strain K; format: cell-based; details: Table 2, all compounds and controls
# Source text: as §1, §2, §3, §4
# [11] = system: Aspergillus nidulans ATCC 38163; assay: MIC determination, strain L; format: cell-based; details: ATCC38163, Table 2, strain L, all compounds and controls
# Source text: as §1, §2, §3, §4
# [12] = Table 2, all compounds and controls
# [13] = Table 2, Ex.2 compounds, CAS, read-out: MIC (MIC-0)
# [14] = Table 2, Ex.2 compounds, CAS, read-out: MIC (MIC-0), in parentheses
# [15] = read-out: MIC (MIC-0), in parentheses
smiles,measurement,setting,value
"C[C@@H]1[C@H](O)[C@@H](C)/C=C/C=C/C=C/C=C/C=C/C=C/C=C/[C@H](O[C@@H]2O[C@H](C)[C@@H](O)[C@H](N)[C@@H]2O)C[C@@H]2O[C@](O)(C[C@@H](O)C[C@@H](O)[C@H](O)CC[C@@H](O)C[C@@H](O)CC(=O)O[C@H]1C)C[C@H](O)[C@H]2C(=O)O [AmB, amphotericin B]",MIC (MIC-0),"[1]; Table 1, strain A, Ex.1 compounds 1-9, 24-41 and AmB, complete growth inhibition",3.9 µg/mL
same,MIC (MIC-0),"[1]; Table 2, strain A, Ex.2 compounds 1-10, 14, 16-28, AmB, CAS, no visible growth",3.9 µg/mL
same,"MIC (MIC-0), in parentheses","[1]; Table 2, strain A, Ex.2 compounds, AmB, CAS",(4.2) micromolar
same,"MIC, Candida albicans ATCC 10231 (A) (+10% FBS)","[1]; Table 3, Ex.2 compounds, +10% FBS",7.8 µg/mL
same,"MIC, Candida albicans ATCC 10231 (A) (no FBS)","[1]; Table 3, Ex.2 compounds, no FBS",3.9 µg/mL
same,MIC (MIC-0),C. albicans ATCC 64124; Table 1,3.9 µg/mL
same,MIC (MIC-0),"C. albicans ATCC 64124; Table 2, Ex.2 compounds, CAS",3.9 µg/mL
same,"MIC (MIC-0), in parentheses","C. albicans ATCC 64124; Table 2, Ex.2 compounds, CAS",(4.2) micromolar
same,MIC (MIC-0),[2]; Table 1,1.95 µg/mL
same,MIC (MIC-0),"[2]; Table 2, Ex.2 compounds, CAS",1.95 µg/mL
same,"MIC (MIC-0), in parentheses","[2]; Table 2, Ex.2 compounds, CAS",(2.1) micromolar
same,MIC (MIC-0),[3]; Table 1,0.975 µg/mL
same,MIC (MIC-0),"[3]; Table 2, Ex.2 compounds, CAS",0.975 µg/mL
same,"MIC (MIC-0), in parentheses","[3]; Table 2, Ex.2 compounds, CAS",(1.1) micromolar
same,MIC (MIC-0),[4]; Table 1,1.95 µg/mL
same,MIC (MIC-0),"[4]; Table 2, Ex.2 compounds, CAS",1.95 µg/mL
same,"MIC (MIC-0), in parentheses","[4]; Table 2, Ex.2 compounds, CAS",(2.1) micromolar
same,MIC (MIC-0),[5]; Table 1,3.9 µg/mL
same,MIC (MIC-0),"[5]; Table 2, Ex.2 compounds, CAS",3.9 µg/mL
same,"MIC (MIC-0), in parentheses","[5]; Table 2, Ex.2 compounds, CAS",(4.2) micromolar
same,MIC (MIC-0),[6]; Table 1,3.9 µg/mL
same,MIC (MIC-0),"[6]; Table 2, Ex.2 compounds, CAS",3.9 µg/mL
same,"MIC (MIC-0), in parentheses","[6]; Table 2, Ex.2 compounds, CAS",(4.2) micromolar
same,MIC (MIC-0),[7]; Table 1,1.95 µg/mL
same,MIC (MIC-0),"[7]; Table 2, Ex.2 compounds, CAS",1.95 µg/mL
same,"MIC (MIC-0), in parentheses","[7]; Table 2, Ex.2 compounds, CAS",(2.1) micromolar
same,MIC (MIC-0),Candida krusei ATCC 6258; Table 1,3.9 µg/mL
same,MIC (MIC-0),"Candida krusei ATCC 6258; Table 2, Ex.2 compounds, CAS",3.9 µg/mL
same,"MIC (MIC-0), in parentheses","Candida krusei ATCC 6258; Table 2, Ex.2 compounds, CAS",(4.2) micromolar
same,MIC (MIC-0),"[8]; Table 1, Ex.1 compounds and AmB, complete growth inhibition",3.9 µg/mL
same,MIC (MIC-0),[8]; [12],3.9 µg/mL
same,"MIC (MIC-0), in parentheses",[8]; [12],(4.2) micromolar
same,cell survival,BEAS-2B cell line,30%
"CC[C@H](C)C[C@H](C)CCCCCCCCC(=O)N[C@H]1C[C@@H](O)[C@@H](NCCN)NC(=O)[C@@H]2[C@@H](O)CCN2C(=O)[C@H]([C@H](O)CCN)NC(=O)[C@H]([C@H](O)[C@@H](O)c2ccc(O)cc2)NC(=O)[C@@H]2C[C@@H](O)CN2C(=O)[C@H]([C@@H](C)O)NC1=O [CAS, caspofungin]",MIC,"[1]; Table 2, strain A, Ex.2 compounds 1-10, 14, 16-28, AmB, CAS, no visible growth, read-out: MIC (MIC-0)",0.975 µg/mL
same,MIC,"[1]; Table 2, strain A, Ex.2 compounds, AmB, CAS, read-out: MIC (MIC-0), in parentheses",0.8 µM
same,MIC,C. albicans ATCC 64124; [13],0.24 µg/mL
same,MIC,C. albicans ATCC 64124; [14],0.2 µM
same,MIC,[2]; [13],0.06 µg/mL
same,MIC,[2]; [14],0.05 µM
same,MIC,[3]; [13],0.12 µg/mL
same,MIC,[3]; [14],0.1 µM
same,MIC,[4]; [13],0.12 µg/mL
same,MIC,[4]; [14],0.1 µM
same,MIC,[5]; [13],0.24 µg/mL
same,MIC,[5]; [14],0.2 µM
same,MIC,[6]; [13],0.48 µg/mL
same,MIC,[6]; [14],0.4 µM
same,MIC,[7]; [13],0.06 µg/mL
same,MIC,[7]; [14],0.05 µM
same,MIC,Candida krusei ATCC 6258; [13],0.48 µg/mL
same,MIC,Candida krusei ATCC 6258; [14],0.4 µM
same,MIC,[9]; read-out: MIC (MIC-0),1.95 µg/mL
same,MIC,[9]; [15],1.6 µM
same,MIC,[10]; read-out: MIC (MIC-0),> 31.3 µg/mL
same,MIC,[10]; [15],> 25.8 µM
same,MIC,[11]; read-out: MIC (MIC-0),> 31.3 µg/mL
same,MIC,[11]; [15],> 25.8 µM
same,MIC,"[8]; Table 2, all compounds and controls, read-out: MIC (MIC-0)",> 31.3 µg/mL
same,MIC,"[8]; Table 2, all compounds and controls, read-out: MIC (MIC-0), in parentheses",> 25.8 µM
